Where two headings read alike, the source gives them in different places.
Experiments:
[1] = set-up: method as in PMID 19056914; conditions: cited from earlier work
[2] = Lapatinib pharmacokinetics and uptake in rat cerebrospinal fluid (CSF); type: in vivo, rats; conditions: male, Wistar, po, 100 mg/kg, lapatinib p.o. 100 mg/kg alone, read-out: Clapatinib in CSF, single rat
[3] = Stability of lapatinib in QC samples, BP samples and standard solutions; type: physicochemical; conditions: for stability, deviation: low and high QC samples
Excerpt: Data acquisition and processing were controlled with Analyst 1.5.2 software (Sciex, Framingham, USA).

[4] = Lapatinib pharmacokinetics and uptake in rat cerebrospinal fluid (CSF); type: in vivo, rats; conditions: for MRT last: read-out: MRT0-t
Procedure: This study was conducted on rats, which are a promising model to predict P-gp-based drug-drug interactions at the human BBB [15]. The animals were allowed to acclimate for one week before the beginning of the experiments. Adult male Wistar-strain rats (weight 470–525 g) were used in the study. The animals were maintained under standard breeding conditions with a 12/12 h light-dark cycle (lights on at 6.00 a.m., lights off at 6.00 p.m.) at constant room temperature (23 ± 2 °C), relative humidity (55 ± 10%) and ad libitum access to food and water. The experimental protocol for this study was reviewed and approved by the Local Ethics Committee. To obtain consistent data, the study was based on the required minimum number of animals and observation time. […] Three rats were used at each time point (n = 3). In total, the research was conducted on 66 animals (n = 33 in the experimental group and n = 33 in the control group).
Elacridar was freshly dissolved in a vehicle at an initial concentration of 20 mg/mL. […] A volume of 80 μL of blood was collected from each rat by cutting off a piece of its tail. The blood samples were collected into heparinized test tubes at the following time points: before treatment (time 0), 5 min, 30, min, and 1, 2, 3, 4, 6, 8, 12, and 24 h after administration of the drugs, and they were immediately centrifuged at 2880 g for 10 min at 4 °C. The anaesthetized rats (anaesthetized by intramuscular administration of 50 mg/kg ketamine and 10 mg/kg xylazine) were prepared for cisterna magna puncture. The hair over the puncture was removed and the skin was disinfected with alcohol. The animals were placed in a recumbent position with an elevated rear part of the body. The animals’ heads were slightly flexed and immobilized with the operator’s left hand. The space between the occiput rostrally and the atlas (C1) of the spinal column caudally was gently palpated with the left thumb. A 0.7 × 20 G needle with polyethylene tubing (Terumo Poland, Warsaw, Poland) was gently inserted at an approximate angle of 80–90° through the skin with the operator’s right hand into the midsagittal region. The moment that dura mater perforation was perceptible, a small amount of CSF was found in the needle tubing. To sample additional CSF, a 1 mL insulin syringe (Becton Dickinson, Warsaw, Poland) was used to collect 80–120 μL of CSF by very gentle aspiration. Only clear CSF was collected for further analysis. […] The animals’ brains were immediately dissected, washed in 0.9% NaCl and divided along the longitudinal axis. One of the brain hemispheres was again rinsed three times with 5 mL of 0.9% NaCl, weighed and homogenized with 0.9% NaCl (4 mL per 1 g of BT) in an Ultra-Turrax homogenizer (Witko, Łódź, Poland). The homogenate was then centrifuged at 4500 g for 10 min. All samples of the rat BP, CSF, and BT homogenate supernatant were stored at −80 °C until analysis.
The chromatographic analysis was conducted using a 1260 Infinity system (Agilent Technologies, Santa Clara, USA) equipped with a Kinetex® C18 column (50 × 4.6 mm, 2.6 μm, Phenomenex, Torrance, USA), which was maintained at 35 °C. The mobile phase consisted of 0.1% formic acid (v/v) in water with 5 mM ammonium formate (solvent A) and acetonitrile with 10% phase A (v/v, solvent B). The analyte and internal standard (IS, erlotinib) were eluted using a gradient run of 10 min as follows: 95% A at 0–2 min; 95%–5% A at 2–4 min; 5% A at 4–5 min; 5%–95% A at 5–6 min; 95% A at 6–10 min. The flow rate and injection volume were set at 0.7 mL/min and 10 μL, respectively. The needle was washed for 30 s in a mixture of acetonitrile, methanol, isopropanol, water, and formic acid (50:20:15:15:0.25, v/v/v/v/v).

[5] = cerebrospinal fluid, lapatinib 100 mg/kg oral + 5 mg/kg elacridar (IE+L)
[6] = cerebrospinal fluid, lapatinib 100 mg/kg oral alone (IIL)
[7] = male, Wistar, rat, cerebrospinal fluid (CSF), po, 100 mg/kg, lapatinib p.o. 100 mg/kg alone, read-out: Clapatinib in CSF, S (medium value)
[8] = male, Wistar, rat, cerebrospinal fluid (CSF), po, 100 mg/kg, lapatinib p.o. 100 mg/kg alone, read-out: Clapatinib in CSF, single rat
[9] = male, Wistar, rat, cerebrospinal fluid, oral, lapatinib 100 mg/kg + elacridar, read-out: Clapatinib in CSF, S
[10] = male, Wistar, rat, cerebrospinal fluid, oral, lapatinib 100 mg/kg + elacridar, read-out: Clapatinib in CSF, single rat
[11] = male, Wistar, rat, cerebrospinal fluid, po, 100 mg/kg, cerebrospinal fluid, lapatinib 100 mg/kg oral + 5 mg/kg elacridar (IE+L)
[12] = male, Wistar, rat, cerebrospinal fluid, po, 100 mg/kg, lapatinib 100 mg/kg oral alone (IIL)

In the case of `CS(=O)(=O)CCNCc1ccc(-c2ccc3ncnc(Nc4ccc(OCc5cccc(F)c5)c(Cl)c4)c3c2)o1` [lapatinib, N-{3-Chloro-4-[(3-fluorobenzyl)oxy]phenyl}-6-[5-({[2-(methylsulfonyl)ethyl]amino}methyl)-2-furyl]-4-quinazolinamine], the “Kp,BT” value ([1]; WT mice, 24-h intravenous administration) is given as 0.04, the “Kp,BT times greater than in WT mice” value ([1]; mdr1a/b(−/−)/bcrp(−/−) mice) is given as 40 times and the concentration at 0.25 h [2] is given as 4.47 ng/mL. The “postpreparative stability, change in the concentration” value ([3]; BP samples and standard solutions, 24 h and 48 h in the autosampler at 4 °C) was under 15%, the “stability, deviation” value ([3]; three freeze-thaw cycles at −80 °C) was under 5% and the “stability, deviation” value ([3]; three months of storage at −80 °C) was under 15%. For the same molecule, the “AUC0-∞ increase by elacridar” value ([4]; CSF) was 1.5 fold, the “Cmax increase in IE+L vs control” value ([4]; CSF) was 2.4 fold and the “Kp decrease in IL+E group vs control” value ([4]; CSF) was 42.9%. The “t0.5 longer in the presence of elacridar” value ([4]; CSF) was 2.6 times, the “AUC0-t elevated in IE+L” value ([4]; CSF, IE+L vs IIL group) was 61.2% and the “Cmax increase with elacridar” value ([4]; CSF, IE+L vs IIL group) was 136.4%. The AUMC0-t [4, 5] was 1620.02 ng × h^2/mL, the “AUMC0-∞” value [4, 5] was 2725.51 ng × h^2/mL and the AUMC0-t [4, 6] was 1257.21 ng × h^2/mL. For the same molecule, the “AUMC0-∞” value [4, 6] was 1767.90 ng × h^2/mL, the Kp ([4]; male, Wistar, rat, CSF / plasma, oral, 100 mg/kg, IIL group, read-out: Cmax,CSF/Cmax,BP ratio) was 0.012 and the Kp ([4]; male, Wistar, rat, CSF / plasma, oral, with elacridar 5 mg/kg intraperitoneally, 30 min before lapatinib, IE+L group, read-out: Cmax,CSF/Cmax,BP ratio) was 0.026. For the same molecule, the concentration at 0.25 h ([4]; male, Wistar, rat, cerebrospinal fluid (CSF), po, 100 mg/kg, lapatinib p.o. 100 mg/kg alone, 0.25 h, read-out: Clapatinib in CSF, S (medium value)) was 3.73 ng/mL, the concentration at 1 h [4, 7] was 38.5 ng/mL and the concentration at 1 h [4, 8] was 38.5 ng/mL. It also gave a concentration at 2 h [4, 7] of 10.8 ng/mL, a concentration at 2 h [4, 8] of 10.8 ng/mL and a concentration at 3 h [4, 7] of 12.2 ng/mL. It also gave a concentration at 3 h [4, 8] of 9.49 ng/mL, a concentration at 4 h [4, 7] of 13.8 ng/mL and a concentration at 4 h [4, 8] of 13.8 ng/mL. It also gave a concentration at 6 h [4, 7] of 26.9 ng/mL, a concentration at 6 h [4, 8] of 26.9 ng/mL and a concentration at 8 h [4, 7] of 24.4 ng/mL. The concentration at 8 h [4, 8] was 24.4 ng/mL, the concentration at 12 h [4, 7] was 7.23 ng/mL and the concentration at 0.5 h ([4]; male, Wistar, rat, cerebrospinal fluid, oral, lapatinib 100 mg/kg + elacridar, 0.5 h, read-out: Clapatinib in CSF, S) was 40.7 ng/mL. The concentration at 1 h [4, 9] was 30 ng/mL, the concentration at 2 h [4, 9] was 75.7 ng/mL and the concentration at 3 h [4, 9] was 51.2 ng/mL. For the same molecule, the concentration at 3 h [4, 10] was 45.6 ng/mL, the concentration at 4 h [4, 9] was 91 ng/mL and the concentration at 4 h [4, 10] was 91 ng/mL. It also gave a concentration at 6 h [4, 9] of 4.27 ng/mL, a concentration at 6 h [4, 10] of 4.27 ng/mL and a concentration at 8 h [4, 9] of 1.03 ng/mL. It also gave a concentration at 8 h [4, 10] of 1.03 ng/mL, a concentration at 12 h [4, 9] of 2.62 ng/mL and a concentration at 12 h [4, 10] of 2.62 ng/mL. For the same molecule, the concentration at 24 h [4, 9] was 2.84 ng/mL, the concentration at 24 h [4, 10] was 2.84 ng/mL and the k el ([4]; male, Wistar, rat, cerebrospinal fluid, po, 100 mg/kg) was 6.39e-05 s⁻¹. It also gave an AUC(0-inf) [4, 11] of 387 ng·h/mL, an AUC(0-t) [4, 11] of 356 ng·h/mL and a Cmax [4, 11] of 91 ng/mL. The Tmax [4, 11] was 4 h, the MRT last [4, 11] was 4.55 h and the MRT last ([4]; male, Wistar, rat, cerebrospinal fluid, po, 100 mg/kg, cerebrospinal fluid, lapatinib 100 mg/kg oral alone (IIL)) was 5.7 h. The AUC(0-inf) [4, 12] was 252 ng·h/mL, the AUC(0-t) [4, 12] was 221 ng·h/mL and the Cmax [4, 12] was 38.5 ng/mL. For the same molecule, the Tmax [4, 12] was 1 h and the Kp ([4]; male, Wistar, rat, cerebrospinal fluid, po, 100 mg/kg, read-out: Kp (tissue-to-plasma partition coefficient, AUC0-∞-tissue/AUC0-∞-plasma)) was 0.007.
